Results reported in patent publication US20240156825A1, “USE OF SELECTIVE VEGFR2 AND FGFR1 INHIBITORS” (Fountain Therapeutics Inc., priority 2022, published 2024).
Like-named read-outs stand apart in the source and are kept apart here.

What was measured:
VEGFR2 [1] = molecular target: T1, VEGFR2 (Homo sapiens, UniProt P35968); conditions: relative IC50: reported IC50 toward VEGFR2 divided by next lowest reported IC50 to any gene target
any gene target = conditions: next lowest IC50 value to any gene target, read-out: Min IC50_μM, cited from earlier work
VEGFR2 [2] = molecular target: T1, VEGFR2; conditions: reported IC50 to VEGFR2, read-out: VEGFR2 IC50_μM, cited from earlier work
[3] = Table 3, selective inhibitors of VEGFR2

T1 sequence (P35968 20-1356, species assumed): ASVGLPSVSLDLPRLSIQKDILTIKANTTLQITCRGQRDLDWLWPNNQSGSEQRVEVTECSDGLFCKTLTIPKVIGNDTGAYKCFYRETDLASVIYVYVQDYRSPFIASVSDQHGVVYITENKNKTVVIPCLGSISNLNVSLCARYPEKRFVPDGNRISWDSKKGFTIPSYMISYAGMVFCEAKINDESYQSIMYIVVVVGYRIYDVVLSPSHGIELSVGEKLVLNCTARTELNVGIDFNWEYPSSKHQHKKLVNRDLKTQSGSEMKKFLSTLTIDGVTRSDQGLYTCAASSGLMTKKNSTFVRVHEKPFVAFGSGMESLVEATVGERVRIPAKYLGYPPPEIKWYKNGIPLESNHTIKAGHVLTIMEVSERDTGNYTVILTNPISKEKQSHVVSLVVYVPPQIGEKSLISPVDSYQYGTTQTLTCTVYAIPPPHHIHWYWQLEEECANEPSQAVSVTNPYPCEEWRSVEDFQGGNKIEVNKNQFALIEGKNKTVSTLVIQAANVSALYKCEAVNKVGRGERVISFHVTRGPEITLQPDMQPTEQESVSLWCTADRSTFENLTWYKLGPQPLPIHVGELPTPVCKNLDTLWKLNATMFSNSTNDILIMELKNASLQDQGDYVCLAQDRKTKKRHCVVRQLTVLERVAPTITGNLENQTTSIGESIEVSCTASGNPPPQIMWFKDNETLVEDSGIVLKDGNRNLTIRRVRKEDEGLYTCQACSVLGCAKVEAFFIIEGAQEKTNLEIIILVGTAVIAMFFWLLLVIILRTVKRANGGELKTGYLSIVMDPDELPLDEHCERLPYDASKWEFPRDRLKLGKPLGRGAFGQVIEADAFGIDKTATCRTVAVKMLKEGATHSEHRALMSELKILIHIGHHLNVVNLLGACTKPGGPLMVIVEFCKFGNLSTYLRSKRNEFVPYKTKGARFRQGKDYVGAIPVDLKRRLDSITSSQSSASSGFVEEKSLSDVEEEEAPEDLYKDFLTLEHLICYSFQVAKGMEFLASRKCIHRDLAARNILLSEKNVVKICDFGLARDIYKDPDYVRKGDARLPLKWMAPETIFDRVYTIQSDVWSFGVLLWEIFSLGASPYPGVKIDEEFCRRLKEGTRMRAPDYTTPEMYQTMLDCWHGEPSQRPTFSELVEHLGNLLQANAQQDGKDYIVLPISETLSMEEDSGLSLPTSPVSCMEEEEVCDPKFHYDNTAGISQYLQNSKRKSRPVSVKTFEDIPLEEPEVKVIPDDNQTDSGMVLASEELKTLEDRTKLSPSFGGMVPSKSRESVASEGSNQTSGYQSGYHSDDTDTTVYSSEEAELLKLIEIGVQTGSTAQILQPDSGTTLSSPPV

Row | SMILES | VEGFR2, rIC50 (VEGFR2 [1]) | IC50 (any gene target; Table 3) [nM] | IC50 (VEGFR2 [2]; [3]) [nM] | IC50 (any gene target) [nM] | IC50 (VEGFR2 [2]) [nM]
1 | CONC(=O)c1cc(Nc2ncnn3cc(NC(=O)OCC4CCCO4)c(C(C)C)c23)c(F)cc1F (stereo not drawn) [compound 11477626, [4-(2,4-Difluoro-5-methoxycarbamoyl-phenylamino)-5-isopropyl-pyrrolo[2,1-f][1,2,4]triazin-6-yl]-carbamic acid tetrahydro-furan-2-ylmethyl ester] | 1.0 | – | – | – | –
2 | COc1cc2c(Nc3ccc(Cl)c(Cl)c3)ncnc2cc1OCC1CN(C(=NC#N)N2CCCC2)CCO1 (stereo not drawn) [compound 57802904] | – | 50 | 50 | – | –
3 | COc1cc2c(Nc3ccc(Br)c(Cl)c3F)ncnc2cc1OC[C@@H]1CN2CCC[C@H]2CO1 [compound 57802905] | – | 50 | 50 | – | –
4 | CCC(=O)N1CCOC(COc2cc3ncnc(Nc4ccc(Cl)c(Cl)c4)c3cc2OC)C1 (stereo not drawn) [compound 57802906] | – | 50 | 50 | – | –
5 | COc1cc2c(Nc3ccc(Cl)c(Cl)c3)ncnc2cc1OCc1csc(N2CCN(C)CC2)n1 [compound 57802910] | – | 50 | 50 | – | –
6 | COc1cc2c(Nc3cc(F)c(Br)cc3F)ncnc2cc1OCC1CN(C)CCO1 (stereo not drawn) [compound 57802916] | – | 50 | 50 | – | –
7 | CCN1CCCCC1c1nc(COc2cc3ncnc(Nc4ccc(Cl)c(Cl)c4)c3cc2OC)no1 (stereo not drawn) [compound 57802919] | – | 50 | 50 | – | –
8 | CCN1CCCC(c2nc(COc3cc4ncnc(Nc5ccc(Cl)c(Cl)c5)c4cc3OC)no2)C1 (stereo not drawn) [compound 58013772] | – | 50 | 50 | – | –
9 | COc1cc2c(Nc3ccc(Br)c(Cl)c3)ncnc2cc1O[C@@H]1CCOC1 [compound 58013780] | – | 50 | 50 | – | –
10 | CCN1CCC(c2nc(COc3cc4ncnc(Nc5ccc(Cl)c(Cl)c5)c4cc3OC)no2)CC1 [compound 58013796] | – | 50 | 50 | – | –
11 | COc1cc2c(Nc3ccc(Cl)c(Cl)c3)ncnc2cc1OCC1CN2CCOCC2CO1 (stereo not drawn) [compound 58013804] | – | 50 | 50 | – | –
12 | COc1cc2c(Nc3ccc(F)c(Cl)c3F)ncnc2cc1OC[C@@H]1CN2CCC[C@H]2CO1 [compound 58013819] | – | 50 | 50 | – | –
13 | C[C@@H](Nc1ncnc2[nH]c(-c3ccc(CNCc4ccc(C(=O)NO)cc4)cc3)cc12)c1ccccc1 [compound 59756709] | – | 100 | 100 | – | –
14 | COc1cc2c(Nc3cc(Cl)c(Cl)cc3F)ncnc2cc1OC[C@@H]1CN2CCOC[C@H]2CO1 [compound 66838463] | – | 50 | 50 | – | –
15 | COc1cc2c(Nc3cc(Cl)c(Br)cc3F)ncnc2cc1OC[C@@H]1CN2CCOC[C@H]2CO1 [compound 66838467] | – | 50 | 50 | – | –
16 | COc1cc2c(Nc3ccc(Cl)c(Cl)c3F)ncnc2cc1OC[C@@H]1CN2CCOC[C@H]2CO1 [compound 66838539] | – | 50 | 50 | – | –
17 | COc1cc2c(Nc3ccc(Cl)c(Cl)c3)ncnc2cc1OC[C@H]1CN2CCC[C@H]2CO1 [compound 66838546] | – | 50 | 50 | – | –
18 | COc1cc2c(Nc3ccc(Br)c(Cl)c3Cl)ncnc2cc1OC[C@@H]1CN2CCOC[C@H]2CO1 [compound 66838558] | – | 50 | 50 | – | –
19 | COc1cc2c(Nc3ccc(F)c(Cl)c3F)ncnc2cc1OC[C@@H]1CN2CCOC[C@H]2CO1 [compound 66838567] | – | 50 | 50 | – | –
20 | COc1cc2c(Nc3cc(Cl)c(Br)cc3F)ncnc2cc1OC[C@@H]1CN2CCC[C@H]2CO1 [compound 66839071] | – | 50 | 50 | – | –
21 | COc1cc2c(Nc3ccc(Br)c(Cl)c3Cl)ncnc2cc1OC[C@@H]1CO[C@H]2[C@@H]1OC[C@@H]2OC [compound 66954887] | – | 50 | 50 | – | –
22 | COc1cc2c(Nc3cc(Cl)c(Cl)cc3F)ncnc2cc1OC[C@@H]1CO[C@H]2[C@@H]1OC[C@@H]2OC [compound 66954904] | – | 50 | 50 | – | –
23 | COc1cc2c(Nc3ccc(Cl)c(Cl)c3)ncnc2cc1OC[C@@H]1CO[C@H]2[C@@H]1OC[C@@H]2OC [compound 66955051] | – | 50 | 50 | – | –
24 | CCN(CC)[C@H]1CO[C@H]2[C@@H]1OC[C@@H]2Oc1cc2ncnc(Nc3ccc(Br)c(Cl)c3)c2cc1OC [compound 67163520] | – | 50 | 50 | – | –
25 | Nc1c(C(=O)c2cc3ccccc3[nH]2)cnn1-c1ccc2nc[nH]c2c1 [compound 68005732, [5-Amino-1-(1H-benzimidazol-6-yl)-1H-pyrazol-4-yl]-1H-indol-2-ylMethanone] | 10.3 | – | – | – | –
26 | COc1cc2c(Oc3ccc(NC(=O)C4(C(=O)Nc5ccc(F)cc5)CC4)cc3F)ccnc2cc1OCCCC(=O)NO [compound 71466525] | – | – | – | 19 | 12
27 | O=C(NCCc1ccc(O)c(Br)c1)/C(Cc1cc(Br)c(O)c(Oc2ccc(CCNC(=O)/C(Cc3cc(Br)c(O)c(-c4cc(C/C(=N\O)C(=O)NCCc5ccc(O)c(Br)c5)cc(Br)c4O)c3)=N/O)cc2Br)c1)=N/O [compound 71524406] | – | 600 | 600 | – | –
28 | COc1ccc2c(c1)/C(=C/c1cc3c([nH]1)CCN(C(=O)N1CCN(C)CC1)C3)C(=O)N2 [compound 71714231] | – | 6 | 6 | – | –

Row | SMILES | VEGFR2, rIC50 (VEGFR2 [1]) | IC50 (any gene target; Table 3) [nM] | IC50 (VEGFR2 [2]; [3]) [nM] | IC50 (any gene target) [nM] | IC50 (VEGFR2 [2]) [nM]
29 | CN1CCC(Nc2ccc3c(c2)/C(=C/c2cc4c([nH]2)CCN(C(=O)N2CCOCC2)C4)C(=O)N3)CC1 [compound 71714235] | – | 3 | 3 | – | –
30 | COc1cc2c(Nc3ccc(Cl)cc3F)ncnc2cc1OCC1CCNCC1 [compound 73349643] | – | – | – | 60 | 50
31 | COc1cc2c(Nc3ccc(Cl)cc3F)ncnc2cc1OCCCN1CCCC1 [compound 73352657] | – | 8 | 8 | – | –
32 | COc1cc2c(Nc3cc(O)c(Cl)cc3F)ncnc2cc1OCC1CCN(C)CC1 [compound 73357210] | – | 3 | 3 | – | –
33 | CN=C(NC#N)N1CCOC(COc2cc3ncnc(Nc4ccc(Cl)c(C)c4)c3cc2OC)C1 (stereo not drawn) [compound 89125605] | – | 50 | 50 | – | –
34 | CNc1cc2c(cn1)cc(-c1ccc(F)c(NC(=O)Nc3cc(C(C)(C)C)no3)c1)c(=O)n2[C@H]1CCOC1 [compound 122177477] | – | – | – | 1 | 0.46
35 | O=C(Nc1ccc(Oc2ncnc3sc4c(c23)CCCC4)cc1)Nc1cccc(Br)c1 [compound 122193773] | – | – | – | 17 | 11
36 | COc1cc2ncnc(Nc3cccc(Cl)c3)c2cc1OCCC(=O)NO [compound 122195525] | – | – | – | 645 | 476
37 | COc1cc2ncnc(Nc3ccc(F)cc3)c2cc1OCCCC(=O)NO [compound 127026070] | – | – | – | 1340 | 376
38 | COc1cc2ncnc(Nc3ccccc3Cl)c2cc1OCCCC(=O)NO [compound 127027019] | – | – | – | 1260 | 857
39 | COc1cc2ncnc(Nc3ccc(Cl)cc3)c2cc1OCCCC(=O)NO [compound 127027096] | – | – | – | 698 | 182
40 | COc1cc2ncnc(Nc3ccc(Br)cc3)c2cc1OCCCC(=O)NO [compound 127027714] | – | – | – | 545 | 98
41 | COc1cc2ncnc(Nc3ccc(Br)cc3)c2cc1OCCCCC(=O)NO [compound 127028028] | – | – | – | 68 | 59
42 | CS(=O)(=O)Cc1cccc(Nc2nccc(Oc3ccc4c(C(=O)Nc5cccnc5)cccc4c3)n2)c1 [compound 127037812] | – | – | – | 4.9 | 0.5
43 | COc1cc2c(Nc3ccc(Cl)c(Cl)c3)ncnc2cc1O[C@@H]1C[C@H]2OC[C@H](OC)[C@H]2O1 [compound 134140126] | – | 50 | 50 | – | –
44 | COc1cc2c(Nc3cccc(Cl)c3F)ncnc2cc1OCC1CN(C(N)=NC#N)CCCO1 (stereo not drawn) [compound 134142438] | – | 50 | 50 | – | –
45 | COc1cc2c(Nc3ccc(Br)c(Cl)c3Cl)ncnc2cc1OC[C@H]1CN2CCCC[C@H]2CO1 [compound 134150926] | – | 50 | 50 | – | –
46 | COc1cc2c(Nc3cccc(Cl)c3Cl)ncnc2cc1OCC1CN(C(C)=N)CCCO1 (stereo not drawn) [compound 134151034] | – | 50 | 50 | – | –
47 | COc1cc2c(Nc3cc(Cl)c(Br)cc3F)ncnc2cc1OCC1COCCN1C (stereo not drawn) [compound 134154844] | – | 50 | 50 | – | –
48 | COc1cc2c(Nc3ccc(Br)c(Cl)c3F)ncnc2cc1O[C@@H]1C[C@H]2OC[C@H](OC)[C@H]2O1 [compound 134155171] | – | 50 | 50 | – | –
49 | COC(=O)c1ccc2c(C(=Nc3ccc(N(C)C(=O)Cn4ccnc4)cc3)c3ccccc3)c(O)[nH]c2c1 [compound 135399795] | – | – | – | 7 | 6
50 | CC(C)(Nc1nc(Nc2ccc3ncsc3c2)[nH]c(=O)n1)c1ccccc1 [compound 135454992] | – | – | – | 550 | 35
51 | Nc1ccc2c(c1)C(c1ccccc1Cl)=Nc1cn[nH]c1N2 [compound 136002661] | – | – | – | 88 | 34
52 | CC(=O)Nc1ccc2c(c1)C(c1ccccc1Cl)=Nc1cn[nH]c1N2 [compound 136002662] | – | – | – | 38 | 33
53 | Cc1ccc(NC(=O)C2(C(=O)Nc3ccc(Nc4ncc(F)c(-c5cc(F)c6nc(C)n(C(C)C)c6c5)n4)cc3)CC2)cc1 [compound 155517777] | – | 46 | 46 | – | –
54 | C[C@@H]1CN(C(=O)CCCC(=O)N2C[C@@H](C)c3c2cc(O)c2ccccc32)c2cc(O)c3ccccc3c21 [compound 155536201] | – | – | – | 540 | 330
55 | O=C(CSC(=S)N1CCCCC1)Nc1cccc(NC(=O)c2ccccn2)c1 [compound 155562216] | – | – | – | 84 | 27
